The results in this text go back to publication PMC6013488, “A widely-applicable high-throughput cellular thermal shift assay (CETSA) using split Nano Luciferase” (Scientific Reports, 2018).

Counter-ions that a name gives are not always drawn. Like-named read-outs stand apart in the source and are kept apart here.

In the test the target is T1, CDK9/cyclin K (Homo sapiens, UniProt P50750).
T1 construct: purchased Invitrogen (ThermoFisher) PV4335
Kind of test: TR-FRET Lanthascreen Eu Kinase Binding assay. The conditions noted are these: for Curve Class: classifies curves by quality of fit, efficacy and number of asymptotes; for Efficacy: difference between highest and lowest activity across concentration range; for Efficacy / Max Resp: in %. From the text: The TR-FRET Lanthascreen Eu Kinase Binding assay for CDK9/cyclin K was purchased from ThermoFisher and performed as per manufacturer instructions.
A general note: In TR-FRET formats the signal depends on donor and acceptor labels being close together.

The mark [1] stands for this setting: concentration at which half maximal activity is observed, 7-point qHTS, read-out: AC50.

T1 sequence (P50750 whole entry): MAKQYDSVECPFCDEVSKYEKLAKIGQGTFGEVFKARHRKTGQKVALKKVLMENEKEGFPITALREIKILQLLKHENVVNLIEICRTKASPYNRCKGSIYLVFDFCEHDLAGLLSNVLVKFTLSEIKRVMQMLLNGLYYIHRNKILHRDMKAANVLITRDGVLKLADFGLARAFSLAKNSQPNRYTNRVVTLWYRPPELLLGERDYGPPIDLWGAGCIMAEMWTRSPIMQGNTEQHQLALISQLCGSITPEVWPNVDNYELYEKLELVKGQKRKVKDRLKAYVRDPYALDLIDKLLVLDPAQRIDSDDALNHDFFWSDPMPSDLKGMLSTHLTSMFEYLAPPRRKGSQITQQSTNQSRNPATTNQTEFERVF
T1 sequence (O75909 whole entry partner): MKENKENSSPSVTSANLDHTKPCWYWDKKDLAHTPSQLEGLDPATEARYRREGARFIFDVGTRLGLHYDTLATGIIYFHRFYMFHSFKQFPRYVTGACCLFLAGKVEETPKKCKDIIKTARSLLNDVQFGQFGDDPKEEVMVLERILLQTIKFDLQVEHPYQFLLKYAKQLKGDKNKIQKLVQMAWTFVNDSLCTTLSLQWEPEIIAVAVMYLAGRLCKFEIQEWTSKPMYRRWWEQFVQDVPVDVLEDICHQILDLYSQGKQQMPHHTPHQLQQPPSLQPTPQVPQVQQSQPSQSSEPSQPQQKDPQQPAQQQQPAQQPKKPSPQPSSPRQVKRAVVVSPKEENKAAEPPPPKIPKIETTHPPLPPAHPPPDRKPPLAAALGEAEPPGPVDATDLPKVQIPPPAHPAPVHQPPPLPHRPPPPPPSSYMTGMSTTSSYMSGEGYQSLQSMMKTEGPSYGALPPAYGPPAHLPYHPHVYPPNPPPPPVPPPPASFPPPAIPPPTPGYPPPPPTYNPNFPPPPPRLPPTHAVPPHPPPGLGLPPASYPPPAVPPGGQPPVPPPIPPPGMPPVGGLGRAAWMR

On to `O=C1Nc2ccc3ncsc3c2/C1=C/Nc1ccc([S+](=O)([O-])Nc2ccccn2)cc1` [GW8510], for which the “Curve Class” value is -1.1, the Efficacy was -99.4 and the “Max Resp” value is given as -92.5.
For the compound `CN(C)c1nc2c(Br)c(Br)c(Br)c(Br)c2[nH]1` [DMAT], the “Curve Class” value is recorded as -1.1, the Efficacy is -84.2 and the “Max Resp” value was -94.6.
Broadly, the AC50 is the midpoint of the concentration-response curve, whichever way the signal moves. Turning to `O=C1Cc2c([nH]c3ccc(Br)cc23)-c2ccccc2N1` [Kenpaullone], the “Curve Class” value is listed as -1.1, the Efficacy was -80.5 and the “Max Resp” value is on record as -37.7. Besides, the AC50 under setting [1] was found to be 336 nM.
In the case of `Cn1cc(C2=C(c3cn(CCCSC(=N)N)c4ccccc34)C(=O)NC2=O)c2ccccc21` [Ro 31-8220 (mesylate)], the “Curve Class” value is listed as -1.3, the Efficacy was -42.0 and the “Max Resp” value was -60.6.
With `CC1(COc2ccc3c(c2)ncn3-c2ccc3cccc(N4CCC(N)CC4)c3n2)COC1` [CP-868596 (Crenolanib)], the “Curve Class” value was -1.1, the Efficacy was -91.6 and the “Max Resp” value is listed as -90.2.
For `O=[N+]([O-])c1cccc2[nH]c(CNc3nc(N4CCOCC4)nc4c3ncn4-c3ccsc3)nc12` [NCGC00386926-01], the “Curve Class” value is -1.2, the Efficacy is recorded as -69.1 and the “Max Resp” value is -72.6.
On to `CN(C)CCCn1cc(C2=C(c3c[nH]c4ccccc34)C(=O)NC2=O)c2ccccc21` [GF109203X], for which the “Curve Class” value was -1.2, the Efficacy was -69.1 and the “Max Resp” value is on record as -74.0.
For the compound `O=C1Nc2ccc3ncsc3c2/C1=C/c1c[nH]cn1` [Compound C16, C16], the “Curve Class” value was -1.2, the Efficacy is listed as -77.3 and the “Max Resp” value is listed as -68.5.
On to `CN(c1ncccc1CNc1nc(Nc2ccc3c(c2)CC(=O)N3)ncc1C(F)(F)F)[S+](C)(=O)[O-]` [PF-562271], for which the “Curve Class” value was -1.1, the Efficacy is -92.3 and the “Max Resp” value was -101.3.
In the same order, the values of `CC(C)c1nn(-c2c(Cl)cccc2Cl)c2nc(Cc3ccc(OCCO)cc3)[nH]c(=O)c12` [Cdk/Crk Inhibitor] are -1.2, -57.1 and -99.2.
The like results for `O=C(Nc1c[nH]nc1-c1nc2ccc(CN3CCOCC3)cc2[nH]1)NC1CC1` [AT9283] were, in that order, -1.1, -93.9 and -97.0.
Take `O=C(NC1CCNCC1)c1[nH]ncc1NC(=O)c1c(Cl)cccc1Cl` [AT7519]: the “Curve Class” value was determined as 5, the Efficacy is recorded as -14.9 and the “Max Resp” value is given as -96.9.
In the same order, the values of `COc1ccccc1-c1c[nH]c2ncc(-c3cncc(C(=O)N(C)C)c3)cc12` [PPY A] are -1.1, -90.1 and -95.0.
In the same order, the values of `O=C(NCCCNc1nc(Nc2cccc(NC(=O)N3CCCC3)c2)ncc1I)c1cccs1` [BX-795 hydrochloride] are -1.1, -99.6 and 5.8.
Take `CC(=O)c1c(C)c2cnc(Nc3ccc(N4CCNCC4)cn3)nc2n(C2CCCC2)c1=O` [Palbociclib (PD-0332991) HCl]: the “Curve Class” value is on record as -1.1, the Efficacy is listed as -92.3 and the “Max Resp” value is recorded as -91.0.
The like results for `CC[C@H](CO)Nc1nc(NCc2ccccc2)c2ncn(C(C)C)c2n1` [Roscovitine] were, in that order, -1.1, -100.3 and -97.7.
Turning to `O=C(Nc1ccnc(NC(=O)C2CC2)c1)c1c(Cl)cccc1Cl` [GDC-046], the “Curve Class” value is given as -1.1, the Efficacy is recorded as -83.7 and the “Max Resp” value was -94.2. For the same compound, the AC50 under setting [1] turned out to be 33.6 nM. Also, the AC50 (logarithm of AC50, read-out: Log AC50 (converted)) was 31.6 nM.
